Measured values reported in patent US7138527B2, “Indole derivatives useful for the treatment of diseases” (Pfizer Inc., priority 2002, dated 2006).

Target: T1, human β2 adrenergic receptor (Homo sapiens, UniProt P07550)
T1 construct: expressed in transfected cells; host or cells: CHO (Chinese Hamster Ovary) cells, CHOhβ2
Assay: Cell based cAMP assay in CHO cells recombinantly expressing the human β2 adrenergic receptor (cAMP-Flashplate)
Conditions: CHOhβ2 cells, 1 hour incubation
Experimental: According to another alternative, the agonist potency for the […] of the indole derivatives of the formula (1) may also be determined by the measure of the concentration of compound according to the present invention required to produce half maximal effect (EC50) for the β2 receptor.
10 mM/100% DMSO (dimethylsulfoxide) stock of compound is diluted to required top dose in 4% DMSO. This top dose is used to construct a 10-point semi-log dilution curve, all in 4% DMSO. […] Data was expressed as % Isoprenaline response.
Cells were seeded to give about 90% confluency for testing.
25 μl/well each dose of compound was transferred into a cAMP-Flashplate® (NEN, SMP004B), with 1% DMSO as basal controls and 100 nM Isoprenaline as max controls. This was diluted 1:2 by the addition of 25 μl/well PBS. […] Compounds were incubated with 50 μl/well cells for 1 hour. […] Dose-response data was expressed as % Isoprenaline activity and fitted using a four parameter sigmoid fit.

T1 sequence (P07550 whole entry): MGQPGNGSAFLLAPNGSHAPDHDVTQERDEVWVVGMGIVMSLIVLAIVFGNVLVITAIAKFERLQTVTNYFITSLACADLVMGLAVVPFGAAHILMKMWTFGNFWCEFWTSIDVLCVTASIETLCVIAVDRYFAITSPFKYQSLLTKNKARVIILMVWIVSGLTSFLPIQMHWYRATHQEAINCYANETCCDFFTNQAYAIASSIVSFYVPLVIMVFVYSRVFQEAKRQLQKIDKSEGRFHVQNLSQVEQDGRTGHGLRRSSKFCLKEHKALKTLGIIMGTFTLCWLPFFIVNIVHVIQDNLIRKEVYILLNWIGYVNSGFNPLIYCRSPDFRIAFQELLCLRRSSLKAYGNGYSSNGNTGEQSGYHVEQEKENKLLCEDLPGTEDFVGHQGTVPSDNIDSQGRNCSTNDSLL

| SMILES | EC50 |
| --- | --- |
| COc1ccccc1CNC(=O)c1cc2cc(C[C@@H](C)NC[C@H](O)c3ccc(O)c(CO)c3)ccc2[nH]1 [Example 1, 5-[(2R)-2-({(2R)-2-hydroxy-2-[4-hydroxy-3-(hydroxymethyl)phenyl]ethyl}amino)propyl]-N-(2-methoxybenzyl)-1H-indole-2-carboxamide] | 0.02 nM |
| C[C@H](Cc1ccc2[nH]c(C(=O)NCc3ccc(C(F)(F)F)cc3)cc2c1)NC[C@H](O)c1ccc(O)c(CO)c1 [Example 2, 5-[(2R)-2-({(2R)-2-hydroxy-2-[4-hydroxy-3-(hydroxymethyl)phenyl]ethyl}amino)propyl]-N-[4-(trifluoromethyl)benzyl]-1H-indole-2-carboxamide] | 0.8 nM |
| COc1cccc(OC)c1CNC(=O)c1cc2cc(C[C@@H](C)NC[C@H](O)c3ccc(O)c(CO)c3)ccc2[nH]1 [Example 3, N-(2,6-dimethoxybenzyl)-5-[(2R)-2-({(2R)-2-hydroxy-2-[4-hydroxy-3-(hydroxymethyl)phenyl]ethyl}amino)propyl]-1H-indole-2-carboxamide] | 0.05 nM |
| COc1cccc(CNC(=O)c2cc3cc(C[C@@H](C)NC[C@H](O)c4ccc(O)c(CO)c4)ccc3[nH]2)c1 [Example 4, 5-[(2R)-2-({(2R)-2-hydroxy-2-[4-hydroxy-3-(hydroxymethyl)phenyl]ethyl}amino)propyl]-N-(3-methoxybenzyl)-1H-indole-2-carboxamide] | 0.12 nM |
| COc1cc(O)cc(OC)c1CNC(=O)c1cc2cc(C[C@@H](C)NC[C@H](O)c3ccc(O)c(CO)c3)ccc2[nH]1 [Example 9, 5-[(2R)-2-({(2R)-2-Hydroxy-2-(4-hydroxy-3-hydroxymethylphenyl)ethyl]amino)propyl]-N-(4-hydroxy-2,6-dimethoxybenzyl)-1H-indole-2-carboxamide] | 0.02 nM |
| C[C@H](Cc1ccc2[nH]c(C(=O)N(C)Cc3ccccc3)cc2c1)NC[C@H](O)c1ccc(O)c(CO)c1 [Example 22, 5-[(2R)-2-({(2R)-2-Hydroxy-2-(4-hydroxy-3-hydroxymethylphenyl)ethyl}amino)propyl}-N-benzyl-N-methyl-1H-indole-2-carboxamide] | 0.02 nM |
| CCn1c(C(=O)NCc2ccc(Cl)cc2)cc2cc(C[C@@H](C)NC[C@H](O)c3ccc(O)c(CO)c3)ccc21 [Example 29, 1-Ethyl-5-[(2R)-2-({(2R)-2-hydroxy-2-(4-hydroxy-3-hydroxymethylphenyl)ethyl}amino)propyl}-N-(4-chlorobenzyl)-1H-indole-2-carboxamide] | 3.99 nM |
| CC[C@H](Cc1ccc2[nH]c(C(=O)NCc3ccccc3)cc2c1)NC[C@H](O)c1ccc(O)c(CO)c1 [Example 36, 5-[(2R)-2-({(2R)-2-Hydroxy-2-(4-hydroxy-3-hydroxymethylphenyl)ethyl]amino)butyl}-N-benzyl-1H-indole-2-carboxamide] | 0.38 nM |
